The data set can be described thus: molar enthalpy of vaporization or sublimation. The note with it: 298.15 K; Liquid; Static calorimetry.

Numbers after ± are expanded uncertainties.

Turning to `COC(=O)c1cccn1C` [methyl 1-methyl-2-pyrrolecarboxylate], the molar enthalpy worked out at 14.1 ± 0.287 kcal/mol.

Values taken from the NIST ThermoML archive (doi:10.1016/j.jct.2013.08.004).
